# Experimental data taken from US9040553B2, “Phenoxyisobutyric acid compounds and method of synthesis” (CELL VIABLE CORPORATION, priority 2010, dated 2015).
# Target: BSA (Bos taurus, UniProt P02769)
# Test: BSA glycation inhibition (glucose incubation, SDS gel/PVDF blot, periodic acid-Schiff staining)
# Assay type: biochemical
# Details: BSA incubated with glucose and compound at 37° C. for 5 weeks; periodic acid-Schiff base staining of blot
# Procedure: Compound No. 1 was tested for glycation activity according to the following protocol:
# BSA was incubated in the presence of glucose and Compound No. 1 at 37° C. for 5 weeks. Aliquots of 2 μg protein were run on an SDS gel and transferred to PVDF membrane—the same procedure as for a western blot. The membrane was then processed to identify glycoprotein content by the periodic acid-Schiff base method. The positive reaction is pink, and glycation also shifts the molecular weight so the band migrates more slowly down the gel (higher position on the blot). […] Amimoguanadine was used as a control Reduced staining is an indication of glycation inhibition.
# Sequence of BSA (P02769 25-607): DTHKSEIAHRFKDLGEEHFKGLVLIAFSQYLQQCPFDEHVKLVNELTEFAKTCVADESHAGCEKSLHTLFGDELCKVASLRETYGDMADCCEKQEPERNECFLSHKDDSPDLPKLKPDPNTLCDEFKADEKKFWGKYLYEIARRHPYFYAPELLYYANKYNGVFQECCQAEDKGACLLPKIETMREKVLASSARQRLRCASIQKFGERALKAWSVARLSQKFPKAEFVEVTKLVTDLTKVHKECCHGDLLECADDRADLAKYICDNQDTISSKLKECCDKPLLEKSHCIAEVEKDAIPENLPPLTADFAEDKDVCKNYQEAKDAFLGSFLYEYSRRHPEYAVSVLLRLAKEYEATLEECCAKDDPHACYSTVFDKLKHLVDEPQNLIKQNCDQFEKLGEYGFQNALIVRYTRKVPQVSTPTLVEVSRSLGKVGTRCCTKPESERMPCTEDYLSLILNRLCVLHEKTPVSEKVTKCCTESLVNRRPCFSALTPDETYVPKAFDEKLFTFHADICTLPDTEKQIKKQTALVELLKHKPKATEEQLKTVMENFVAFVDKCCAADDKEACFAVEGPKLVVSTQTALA
substance,measurement,value
"3,3′-dichloro-1,1′-diphenyl-4,4′-diureidophenoxyisobutyric acid [Compound No. 1]",glycation inhibition (reduced glycoprotein staining),found to inhibit glycation
